The target of series [1] is T1, [V390I/Y410E/E274V]-CfEcR (Choristoneura fumiferana, UniProt O77240).
T1 construct: assay construct b835
Format: cell-based. Conditions: 3T3 Cells; for RMFI (relative maximum fold induction): relative to GS-E ligand. The method, then:
(§1) Cellular gene switch assays were performed by transiently transfecting the following constructs in mouse embryonic fibroblast cells (NIH3T3). The wild-type D, E and F domains from Choristoneura fumiferana EcR or its V390I/Y410E/E274V mutant were fused to GAL4-DBD and placed under the control of the CMV promoter in the pBIND vector (Promega Corporation, Madison, Wis., USA). The DEF domains of EcRs shown were amplified using primers designed based on 20-25 nt sequences at the 5′ and 3′ ends. Restriction enzyme sites EcoR I/BamH I and Xba I were added to 5′ and 3′ primers respectively. The PCR products were digested with appropriate restriction enzymes and cloned into pBIND vector. The EcR LBDs cloned into pBIND vector were verified by sequencing. A chimeric RXR from Homo sapiens RXRP and Locusta migratoria RXR, fused to VP16-AD and placed under the control of an SV40e promoter, was constructed as previously described (Kumar P & Katakam A in Gene Transfer, Friedmann T and Rossi J, eds, pp. 643-651 (2007), Cold Spring Harbor Laboratory Press, Cold Spring Harbor, N.Y.). The inducible luciferase reporter plasmid pFRLuc (Stratagene Cloning Systems, La Jolla, Calif., USA), contains five copies of the GAL4 response element and a synthetic minimal promoter.
(§2) NIH3T3 cells were maintained at 37′C and 5% CO2 in Dulbecco's modified Eagle's medium (DMEM) supplemented with 10% bovine calf serum, both obtained from Mediatech Inc., Manassas, Va. Cells were planted in a 96-well plate at a density of 2,500 cells/well in 50 μL of growth medium. The following day cells were first treated with 35 μL of serum-free DMEM containing dimethyl sulfoxide (DMSO; control) or a DMSO solution containing ligand. Cells were then transfected with 15 μl of serum-free DMEM containing 0.04 μg of EcR construct, 0.04 ug of RXR construct, and 0.16 μg of luciferase reporter construct per well, using SuperFect™ transfection reagent (Qiagen Inc., Valencia, Calif., USA) according to the manufacturer's instructions. Ligands were tested at 8 doses from 0.01-33 μM and the final DMSO concentration was 0.33% in both control and treatment wells. After a 48 hour post-treatment and transfection incubation, the cells were assayed for luciferase activity using the Bright-Glo™ Luciferase Assay System (Promega Corporation, Madison, Wis., USA) following the manufacturer's instructions. EC50 values were measured minimally in duplicate.
(§3) Luciferase reporter gene expression was measured 48 h after cell treatment using Bright-Glo™ Luciferase Assay System from Promega (E2650). Luminescence was detected at room temperature using a Dynex MLX microtiter plate luminometer.
(§4) Each assay was conducted in two separate wells, and the two values were averaged. Fold inductions were calculated by dividing relative light units (“RLU”) in ligand treated cells with RLU in DMSO treated cells. EC50s were calculated from dose response data using a three-parameter logistic model. Relative Max FI was determined as the maximum fold induction of the tested ligand (an embodiment of the invention) observed at any concentration relative to the maximum fold induction of GS™-E ligand (3,5-dimethyl-benzoic acid N-tert-butyl-N′-(2-ethyl-3-methoxy-benzoyl)-hydrazide) observed at any concentration.

The target of series [2] is wild-type Choristoneura fumiferana EcR (D, E and F domains) (Choristoneura fumiferana, UniProt O77240). It is filed as cell-based. To be noted: WT-CtEcR, 3T3 Cells; for RMFI (relative maximum fold induction): relative to GS-E ligand. On the procedure:
as §1, §2, §3, §4

Like-named read-outs stand apart in the source and are kept apart here.

One may read the EC50 as the concentration at which the effect is half-maximal.

On to `CCCC(N(NC(=O)c1cccc(OC)c1C)C(=O)c1cc(OC)c(C)c(OC)c1)C(C)(C)C` (racemic) [rac-51], for which the EC50 in series [1] (rac, read-out: EC50) came to 15 nM; in series [2] (rac, read-out: EC50), 80.2 nM. In addition, the “RMFI (relative maximum fold induction)” value in series [1] (rac) was 0.81; in series [2] (rac), 0.82.

For the compound `C=CCC(CCc1ccccc1)N(NC(=O)c1ccc(CC)cc1)C(=O)c1cc(C)cc(C)c1` (racemic) [rac-62], the EC50 is 2110 nM in series [1] (rac, read-out: EC50) and ~5000 nM in series [2] (rac, read-out: EC50). For the same compound, the “RMFI (relative maximum fold induction)” value was 0.67 in series [1] (rac) and 0.06 in series [2] (rac).

Take `CCC[C@H](N(NC(=O)c1cc(OC)c(C)c(OC)c1)C(=O)c1cc(C)cc(C)c1)C(C)(C)C` [Example 42, (S)-3,5-Dimethyl-benzoic acid N-(1-tert-butyl-butyl)-N′-(3,5-dimethoxy-4-methyl-benzoyl)-hydrazide]: in series [1] (S), the EC50 was ~7000 nM and the “RMFI (relative maximum fold induction)” value came to 0.08. The 50% effective concentration (EC50) in series [2] (S) was > 10000 nM.

Turning to `CCCC(N(NC(=O)c1ccccc1Cl)C(=O)c1cc(C)cc(C)c1)C(C)(C)C` (racemic) [rac-6], the EC50 in series [1] (rac, read-out: EC50) worked out at 1.2 nM; in series [2] (rac, read-out: EC50), 59 nM. Besides, the “RMFI (relative maximum fold induction)” value turned out to be 0.95 in series [1] (rac) and 0.72 in series [2] (rac).

`C=CC[C@H](C1CCCCC1)N(NC(=O)c1cccc(OC)c1C)C(=O)c1cc(C)c(OC)c(C)c1` [Example 61, (R)-4-Methoxy-3,5-dimethyl-benzoic acid N-(1-cyclohexyl-but-3-enyl)-N′-(3-methoxy-2-methyl-benzoyl)-hydrazide]: in series [1] (R), the EC50 worked out at 1020 nM and the “RMFI (relative maximum fold induction)” value is given as 0.67. In series [2] (R), the EC50 was ~3300 nM and the “RMFI (relative maximum fold induction)” value is reported as 0.33.

For the compound `CCC[C@H](C1CCCCC1)N(NC(=O)c1cccc(OC)c1)C(=O)c1cc(C)cc(C)c1` [Example 54, (R)-3,5-Dimethyl-benzoic acid N-(1-cyclohexyl-butyl)-N′-(3-methoxy-benzoyl)-hydrazide], the figures for the 50% effective concentration (EC50) in series [1] (R) and in series [2] (R) were 474 nM and ~3300 nM, respectively. Moreover, the “RMFI (relative maximum fold induction)” value in series [1] (R) was 0.44; in series [2] (R), 0.19.

For the compound `CCCC(N(NC(=O)c1cccc(OC)c1C)C(=O)c1cc(C)cc(C)c1)C(C)(C)C` (racemic) [rac-29], the EC50 in series [1] (rac, read-out: EC50) worked out at 0.15 nM; in series [2] (rac, read-out: EC50), 3.88 nM. For the same compound, the “RMFI (relative maximum fold induction)” value in series [1] (rac) is 0.77; in series [2] (rac), 0.98.

Regarding `CCC[C@H](N(NC(=O)c1cccnc1Cl)C(=O)c1cc(C)cc(C)c1)C(C)(C)C` [Example 45, (S)-3,5-Dimethylbenzoic acid N-(1-tert-butyl-butyl)-N′-(2-chloro-pyridine-3-carbonyl)-hydrazide], the results for the EC50 in series [1] (S) and in series [2] (S) were 1470 nM and ~20000 nM, respectively. The “RMFI (relative maximum fold induction)” value was found to be 0.80 in series [1] (S) and 0.05 in series [2] (S).

`CCCC(N(NC(=O)c1ccc2c(c1CC)OCCO2)C(=O)c1cc(C)cc(C)c1)C(C)(C)C` (racemic) [rac-22]: the EC50 in series [1] (rac, read-out: EC50) is 0.059 nM; in series [2] (rac, read-out: EC50), 0.499 nM. For the same compound, the “RMFI (relative maximum fold induction)” value in series [1] (rac) was found to be 0.79; in series [2] (rac), 0.88.

Take `CCC[C@@H](C1CCCCC1)N(NC(=O)c1cccc(OC)c1CC)C(=O)c1cc(C)cc(C)c1` [Example 56, (S)-3,5-Dimethyl-benzoic acid N-(1-cyclohexyl-butyl)-N′-(2-ethyl-3-methoxy-benzoyl)-hydrazide]: the EC50 in series [1] (S) was 107 nM; in series [2] (S), 159 nM. For the same compound, the “RMFI (relative maximum fold induction)” value in series [1] (S) is given as 0.52; in series [2] (S) it was 0.37.

Take `CCC[C@@H](N(NC(=O)c1ccc2c(c1C)OCO2)C(=O)c1cc(C)cc(C)c1)C(C)(C)C` [Example 20, (R)-3,5-Dimethyl-benzoic acid N-(1-tert-butyl-butyl)-N′-(4-methyl-benzo[1,3]dioxole-5-carbonyl)-hydrazide]: in series [1] (R), the EC50 was found to be 0.26 nM and the “RMFI (relative maximum fold induction)” value came out at 1.01. In addition, in series [2] (R), the EC50 is 7.6 nM and the “RMFI (relative maximum fold induction)” value was 1.02.

As to `CCCC(N(NC(=O)c1ccc(CC)cc1)C(=O)c1cc(C)cc(C)c1)C(C)(C)C` (racemic) [rac-12], the EC50 in series [1] (rac, read-out: EC50) was ~0.6 nM; in series [2] (rac, read-out: EC50) it was ~20 nM. The “RMFI (relative maximum fold induction)” value turned out to be 0.96 in series [1] (rac) and 0.79 in series [2] (rac).

`CCCC(N(NC(=O)c1ccc(OC)c(OC)c1)C(=O)c1cc(C)cc(C)c1)C(C)(C)C` (racemic) [rac-17]: the EC50 in series [1] (rac, read-out: EC50) worked out at 720 nM; in series [2] (rac, read-out: EC50), 4130 nM. The “RMFI (relative maximum fold induction)” value in series [1] (rac) is given as 0.51; in series [2] (rac), 0.25.

Regarding `CCC[C@@H](N(NC(=O)c1ccc(Cl)nc1)C(=O)c1cc(C)cc(C)c1)C(C)(C)C` [Example 28, (R)-3,5-Dimethyl-benzoic acid N-(1-tert-butyl-butyl)-N′-(6-chloro-pyridine-3-carbonyl)-hydrazide], in series [1] (R), the EC50 is ~20 nM and the “RMFI (relative maximum fold induction)” value was determined as 0.78. In addition, in series [2] (R), the concentration giving a half-maximal response (EC50) stood at 243 nM and the “RMFI (relative maximum fold induction)” value is listed as 0.38.

As to `CCCC(N(NC(=O)c1cccs1)C(=O)c1cc(C)cc(C)c1)C(C)(C)C` (racemic) [rac-25], the half-maximal effective concentration (EC50) worked out at 172 nM in series [1] (rac, read-out: EC50) and 3160 nM in series [2] (rac, read-out: EC50). The results for the “RMFI (relative maximum fold induction)” value in series [1] (rac) and in series [2] (rac) were 0.89 and 0.52, respectively.

Consider `C=CCC(C1CCCCC1)N(NC(=O)c1cccc(OC)c1C)C(=O)c1cc(C)cc(C)c1` (racemic) [rac-60], for which the EC50 is ~200 nM in series [1] (rac, read-out: EC50) and ~1000 nM in series [2] (rac, read-out: EC50). Besides, the “RMFI (relative maximum fold induction)” value in series [1] (rac) was 0.73; in series [2] (rac), 0.49.

As for `CCC[C@H](C1CCCCC1)N(NC(=O)c1ccccc1)C(=O)c1cc(C)cc(C)c1` [Example 53, (R)-3,5-Dimethyl-benzoic acid N′-benzoyl-N-(1-cyclohexyl-butyl)-hydrazide], in series [1] (R), a half-maximal effect (EC50) was put at 629 nM and the “RMFI (relative maximum fold induction)” value was determined as 0.62. Moreover, in series [2] (R), the EC50 was ~3300 nM and the “RMFI (relative maximum fold induction)” value stood at 0.30.

For `CCC[C@@H](N(NC(=O)OC(C)(C)C)C(=O)c1cc(C)cc(C)c1)C(C)(C)C` [Example 49, (R)—N′-(1-tert-Butyl-butyl)-N′-(3,5-dimethyl-benzoyl)-hydrazinecarboxylic acid tert-butyl Ester], the EC50 in series [1] (R) was 2750 nM; in series [2] (R) it was 15100 nM. Further, the results for the “RMFI (relative maximum fold induction)” value in series [1] (R) and in series [2] (R) were 0.59 and 0.15, respectively.

Consider `CCCC(N(NC(=O)c1ccc(Cl)cc1)C(=O)c1cc(C)cc(C)c1)C(C)(C)C` (racemic) [rac-14], for which the EC50 was ~20 nM in series [1] (rac, read-out: EC50) and ~200 nM in series [2] (rac, read-out: EC50). The “RMFI (relative maximum fold induction)” value stood at 0.83 in series [1] (rac) and 0.46 in series [2] (rac).

`CCCC(N(NC(=O)c1ccccc1OC)C(=O)c1cc(C)cc(C)c1)C(C)(C)C` (racemic) [rac-4]: the EC50 in series [1] (rac, read-out: EC50) is ~300 nM; in series [2] (rac, read-out: EC50), ~2000 nM. Also, the “RMFI (relative maximum fold induction)” value in series [1] (rac) is listed as 0.72; in series [2] (rac) it was 0.32.

For `CCCC(N(NC(=O)c1ccc2c(c1C)OCCO2)C(=O)c1cc(C)cc(C)c1)C(C)(C)C` (racemic) [rac-21], the EC50 in series [1] (rac, read-out: EC50) was ~0.1 nM; in series [2] (rac, read-out: EC50) it was 1.32 nM. For the same compound, the entries for the “RMFI (relative maximum fold induction)” value in series [1] (rac) and in series [2] (rac) were 0.85 and 0.86, respectively.

For the origin of these results see patent publication US20200270225A1, “Chiral Diacylhydrazine Ligands for Modulating the Expression of Exogenous Genes via an Ecdysone Receptor Complex” (Intrexon Corporation, priority 2007, published 2020).
